Data set [1] concerns the target T1, sEH (Homo sapiens, UniProt P34913).
T1 sequence (P34913 1-555): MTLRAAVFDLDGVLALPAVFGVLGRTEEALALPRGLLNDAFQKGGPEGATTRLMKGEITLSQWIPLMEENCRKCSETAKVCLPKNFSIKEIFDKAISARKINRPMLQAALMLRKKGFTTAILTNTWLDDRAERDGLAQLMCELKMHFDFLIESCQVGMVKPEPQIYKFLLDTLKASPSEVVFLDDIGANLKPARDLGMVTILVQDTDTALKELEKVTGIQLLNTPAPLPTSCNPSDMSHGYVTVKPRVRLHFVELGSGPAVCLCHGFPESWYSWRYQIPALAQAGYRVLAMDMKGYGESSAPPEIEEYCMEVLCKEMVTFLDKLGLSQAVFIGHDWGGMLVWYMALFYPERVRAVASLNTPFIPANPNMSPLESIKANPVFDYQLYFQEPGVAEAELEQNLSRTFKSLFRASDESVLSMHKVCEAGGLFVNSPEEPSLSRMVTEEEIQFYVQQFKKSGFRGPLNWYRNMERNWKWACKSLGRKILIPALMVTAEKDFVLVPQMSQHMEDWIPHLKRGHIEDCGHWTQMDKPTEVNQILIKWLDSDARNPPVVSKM
As to the kind of experiment: sEH inhibitory activity, fluorescence assay with PHOME substrate. The settings on record: for IC50: PHOME substrate, dose-dependent response curve; for inhibition at 100 µM / Inhibition on sEH at 100 µM (%): 100 µM compound, tested three times. It is filed as biochemical.

Data set [2] has as its target T1, sEH. Briefly: sEH binding mechanism, Dixon and Lineweaver-Burk plots at different substrate and inhibitor concentrations. The class given is biochemical. Conditions: for Ki: Dixon plots; for Type of sEH inhibition: Dixon / Lineweaver-Burk plots.
Data set [3] relates to LPS-induced NO production in macrophage RAW 264.7 cells (iNOS). Briefly: Inhibition of LPS-induced NO production in RAW 264.7 macrophages (Griess reaction, measure of iNOS activity).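 On all read-outs here: cells pretreated with compound for 2 h, then stimulated 24 h with LPS at 500 ng/ml, supernatant nitrite quantified by absorbance at 550 nm against a nitrite standard curve.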 The class given is cell-based. The settings on record: for inhibition at 50 µM / IC50: Mus musculus; for inhibition at 50 µM / Inhibition of NO production at 50 µM (%): 50 µM compound, LPS-stimulated RAW264.7 cells; for inhibition at 50 µM: read-out: Inhibition of NO production at 50 µM (%); for IC50: RAW264.7, LPS-stimulated RAW264.7 cells, means ± SE, n = 3. (Griess reagent forms a coloured azo dye with nitrite.)

Data set [4] deals with RAW 264.7 cells.
Data set [5] deals with X-box binding protein 1. Set-up: method as in PMID 26475664. The settings on record: related to ulcerative colitis; cited from earlier work.
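Wherever Cytotoxicity in RAW 264.7 cells (MTT) is given: viability gauged by mitochondrial reductase turning MTT into formazan, optical density read at 570 nm, with untreated control cells set as 100% viability.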

In the case of `COC(=O)C1(O)CC(O)C(OC(=O)C=Cc2ccc(O)c(O)c2)C(O)C1` (centres unmarked) [Compound 8], the IC50 (as a rule, the midpoint of a concentration-inhibition curve) in data set [1] worked out at 9.4 ± 0.2 µM. Besides, the Ki (commonly a measure of affinity in units of concentration, obtained from inhibition or displacement) in data set [2] worked out at 13.7 µM. In data set [3], the inhibition (as a rule, the change of the read-out against control, counted positive when it falls) at 50 µM came out at 25.2%. In data set [4], the “Cytotoxicity in RAW 264.7 cells (MTT)” value is recorded as “did not exhibit significant cytotoxicity”.
On to `O=c1ccc2cc(O)c(O)cc2o1` [Compound 19], for which the 50% inhibitory concentration (IC50) in data set [1] turned out to be 4.5 ± 0.2 µM. The affinity in data set [2] corresponds to a Ki of 10.2 µM. Besides, in data set [3], half-maximal inhibition (IC50) was put at 47.3 ± 6.9 µM and the inhibition at 50 µM came to 50.1%. The “Cytotoxicity in RAW 264.7 cells (MTT)” value in data set [4] was “did not exhibit significant cytotoxicity”.
In data set [1], `O=c1c(O)c(-c2ccc(O)cc2)oc2cc(O)cc(O)c12` [Compound 10, kaempferol] returned an inhibition at 100 µM of 58 ± 2% and a 50% inhibitory concentration (IC50) of 6.8 ± 2.4 µM. Moreover, in data set [2], the “Type of sEH inhibition” value is “Non-competitive” and the affinity, expressed as Ki, was 18.6 µM. Moreover, in data set [3], the 50% inhibitory concentration (IC50) was determined as 15.6 ± 1.6 µM and the inhibition at 50 µM was determined as 93%. Also, in data set [4], the “Cytotoxicity in RAW 264.7 cells (MTT)” value is “did not exhibit significant cytotoxicity”.
Regarding `COc1cc(C2c3cc(O)c(OC)cc3CC(CO)C2COC2OC(C)C(O)C(O)C2O)ccc1O` (centres unmarked) [Compound 18], in data set [1], the “sEH inhibitory activity (in words)” value is on record as “weak inhibitory activity” and 100 µM produced 52.3 ± 2.6% inhibition. The inhibition at 50 µM in data set [3] worked out at 32.1%. Also, the “Cytotoxicity in RAW 264.7 cells (MTT)” value in data set [4] is on record as “did not exhibit significant cytotoxicity”. In addition, the “Transcriptional activation of X-box binding protein 1” value in data set [5] was “remarkable transcriptional activation”.
Take `C[C@@H]1O[C@@H](OC[C@H]2O[C@@H](Oc3c(-c4ccc(O)c(O)c4)oc4cc(O)cc(O)c4c3=O)[C@H](O)[C@@H](O)[C@@H]2O)[C@H](O)[C@H](O)[C@H]1O` [Compound 16]: in data set [1], the “Inhibition on sEH at 100 µM (%)” value is given as 95.2 ± 0.2% and the IC50 is 6.2 ± 0.1 µM. For the same molecule, the “Type of sEH inhibition” value in data set [2] is “non-competitive”. In addition, the “Inhibition of NO production at 50 µM (%)” value in data set [3] was determined as 26.2%. Moreover, in data set [4], the “Cytotoxicity in RAW 264.7 cells (MTT)” value was “did not exhibit significant cytotoxicity”.
Taken in the same sequence, the figures for `CC(=O)O[C@H]1[C@H](OC[C@H]2O[C@@H](Oc3c(-c4ccc(O)c(O)c4)oc4cc(O)cc(O)c4c3=O)[C@H](O)[C@@H](O)[C@@H]2O)O[C@@H](C)[C@H](O)[C@H]1O` [Compound 17] were 83.8 ± 3.7%, 9.5 ± 0.1 µM, “non-competitive”, 29.9% and “did not exhibit significant cytotoxicity”.
On to `O=c1cc(-c2ccc(O)cc2)oc2cc(O)cc(O)c12` [Compound 12, apigenin], for which, in data set [1], the inhibition at 100 µM was 92.4 ± 2% and the midpoint of inhibition, the IC50, lay at 7.2 ± 0.3 µM. Further, in data set [2], the “Type of sEH inhibition” value was “Non-competitive” and affinity was put at a Ki of 24.4 µM. In data set [3], half-maximal inhibition (IC50) required 12.2 ± 0.1 µM and the inhibition at 50 µM was determined as 98.9%. In addition, the “Cytotoxicity in RAW 264.7 cells (MTT)” value in data set [4] is given as “did not exhibit significant cytotoxicity”.

The values are drawn from article PMC6407587, “Inhibition potential of phenolic constituents from the aerial parts of Tetrastigma hemsleyanum against soluble epoxide hydrolase and nitric oxide synthase” (Journal of Enzyme Inhibition and Medicinal Chemistry, 2019).
